The source of these data is ChEMBL document CHEMBL1145547, “Achiral, selective CCK2 receptor antagonists based on a 1,3,5-benzotriazepine-2,4-dione template” (Bioorg Med Chem, 2008).

The target in assay [1] is T1, Cholecystokinin receptor type A (Cavia porcellus) (UniProt Q63931).
T1 sequence (whole entry): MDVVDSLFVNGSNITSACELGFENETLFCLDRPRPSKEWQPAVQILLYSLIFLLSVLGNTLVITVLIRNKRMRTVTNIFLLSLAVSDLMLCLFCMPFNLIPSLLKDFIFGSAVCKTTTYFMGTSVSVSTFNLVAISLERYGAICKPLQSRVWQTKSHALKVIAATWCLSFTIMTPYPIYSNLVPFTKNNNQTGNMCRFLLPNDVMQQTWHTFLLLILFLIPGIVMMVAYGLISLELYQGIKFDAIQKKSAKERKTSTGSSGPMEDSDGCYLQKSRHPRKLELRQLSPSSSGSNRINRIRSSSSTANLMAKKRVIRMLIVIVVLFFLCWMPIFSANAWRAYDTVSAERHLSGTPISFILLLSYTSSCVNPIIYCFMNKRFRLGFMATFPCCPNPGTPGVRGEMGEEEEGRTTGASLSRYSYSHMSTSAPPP
The assay is described as follows: (§1) Agonist activity at CCK1 receptor assessed as stimulation of contraction in guinea pig gallbladder. The assay is classed as functional.

In assay [2] the target is T1, Cholecystokinin receptor type A (Cavia porcellus). Briefly: Agonist activity at CCK1 receptor assessed as stimulation of contraction in guinea pig gallbladder at 30 uM relative to CCK8. The format is functional.
Assay [3] addresses T2, Gastrin/cholecystokinin type B receptor (Homo sapiens, UniProt P32239).
T2 sequence (P32239 whole entry): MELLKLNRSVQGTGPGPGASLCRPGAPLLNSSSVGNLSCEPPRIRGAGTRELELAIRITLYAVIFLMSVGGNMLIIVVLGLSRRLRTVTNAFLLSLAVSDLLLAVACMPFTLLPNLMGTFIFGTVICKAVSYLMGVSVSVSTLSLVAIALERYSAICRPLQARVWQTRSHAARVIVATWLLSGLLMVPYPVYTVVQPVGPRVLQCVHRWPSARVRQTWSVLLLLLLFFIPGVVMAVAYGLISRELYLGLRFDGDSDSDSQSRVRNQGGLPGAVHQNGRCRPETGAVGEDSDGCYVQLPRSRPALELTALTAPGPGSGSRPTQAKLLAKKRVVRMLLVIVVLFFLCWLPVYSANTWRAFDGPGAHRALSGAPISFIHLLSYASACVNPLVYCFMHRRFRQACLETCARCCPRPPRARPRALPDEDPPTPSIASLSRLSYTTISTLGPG
The assay is described as follows: Displacement of [125I]BH-CCK-8S from human recombinant CCK2 receptor expressed in NIH3T3 cells. The format is cell-based.

Assay [4] addresses T3, Gastrin/cholecystokinin type B receptor (Rattus norvegicus) (UniProt P30553).
T3 sequence (whole entry): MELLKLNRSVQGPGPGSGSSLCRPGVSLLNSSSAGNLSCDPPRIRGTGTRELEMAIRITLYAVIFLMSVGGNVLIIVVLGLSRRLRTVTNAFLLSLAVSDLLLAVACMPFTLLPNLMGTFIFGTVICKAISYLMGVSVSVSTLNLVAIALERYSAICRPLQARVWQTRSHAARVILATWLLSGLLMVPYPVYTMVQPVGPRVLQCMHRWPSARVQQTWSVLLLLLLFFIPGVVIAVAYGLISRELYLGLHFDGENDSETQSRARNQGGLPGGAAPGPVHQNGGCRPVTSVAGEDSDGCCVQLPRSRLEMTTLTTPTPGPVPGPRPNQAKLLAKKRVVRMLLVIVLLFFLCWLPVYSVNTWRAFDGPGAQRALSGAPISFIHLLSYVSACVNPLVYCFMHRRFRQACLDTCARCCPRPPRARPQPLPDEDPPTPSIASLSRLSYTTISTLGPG
Briefly: Antagonist activity at CCK2 receptor in immature rat stomach assessed as pentagastrin-induced acid secretion at 1 uM. The format is functional, tissue-based.

Assay [5] has as its target T4, Cholecystokinin receptor type A (Homo sapiens, UniProt P32238).
T4 sequence (P32238 whole entry): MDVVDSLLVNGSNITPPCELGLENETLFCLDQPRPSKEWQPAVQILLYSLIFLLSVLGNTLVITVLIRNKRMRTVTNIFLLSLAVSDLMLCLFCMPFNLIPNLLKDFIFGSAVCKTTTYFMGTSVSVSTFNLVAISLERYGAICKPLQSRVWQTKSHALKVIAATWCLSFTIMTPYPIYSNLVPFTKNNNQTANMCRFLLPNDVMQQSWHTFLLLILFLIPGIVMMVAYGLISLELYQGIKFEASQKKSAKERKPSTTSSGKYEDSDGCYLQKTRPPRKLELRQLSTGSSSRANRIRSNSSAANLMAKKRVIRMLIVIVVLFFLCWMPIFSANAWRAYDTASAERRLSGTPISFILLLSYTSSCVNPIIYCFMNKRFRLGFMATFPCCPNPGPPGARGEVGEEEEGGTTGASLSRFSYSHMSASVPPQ
The assay is described as follows: Displacement of [3H]L-364718 from human recombinant CCK1 receptor expressed in CHO-K1 cells. The format is cell-based.

The target in assay [6] is T2, Gastrin/cholecystokinin type B receptor. The assay is described as follows: Binding affinity at human CCK2 receptor.
In assay [7] the target is T4, Cholecystokinin receptor type A. Briefly: Binding affinity to human CCK1 receptor.
Assay [8] has as its target T5, Cholecystokinin receptor type A (Cavia porcellus, UniProt Q63931).
T5 sequence (Q63931 whole entry): T1 sequence (whole entry)
The description is as §1. The assay is classed as functional.

The target of assay [9] is T6, Gastrin/cholecystokinin type B receptor (Mus musculus, UniProt P56481).
T6 sequence (P56481 whole entry): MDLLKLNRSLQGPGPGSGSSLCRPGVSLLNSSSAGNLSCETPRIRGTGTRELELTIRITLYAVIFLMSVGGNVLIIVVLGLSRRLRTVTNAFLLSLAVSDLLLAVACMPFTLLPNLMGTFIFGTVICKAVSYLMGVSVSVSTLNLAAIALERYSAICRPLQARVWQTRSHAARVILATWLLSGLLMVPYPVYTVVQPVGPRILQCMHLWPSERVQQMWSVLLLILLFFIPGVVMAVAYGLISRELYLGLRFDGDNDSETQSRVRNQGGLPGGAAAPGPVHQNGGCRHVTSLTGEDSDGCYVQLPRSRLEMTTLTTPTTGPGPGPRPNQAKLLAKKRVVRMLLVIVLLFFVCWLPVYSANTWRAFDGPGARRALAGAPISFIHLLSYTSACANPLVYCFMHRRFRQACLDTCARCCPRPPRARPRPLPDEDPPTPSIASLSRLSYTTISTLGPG
The assay is described as follows: Binding affinity to mouse CCK2 receptor.

For assay [10], the target named is T7, Cholecystokinin receptor type A (Mus musculus, UniProt O08786).
T7 sequence (O08786 whole entry): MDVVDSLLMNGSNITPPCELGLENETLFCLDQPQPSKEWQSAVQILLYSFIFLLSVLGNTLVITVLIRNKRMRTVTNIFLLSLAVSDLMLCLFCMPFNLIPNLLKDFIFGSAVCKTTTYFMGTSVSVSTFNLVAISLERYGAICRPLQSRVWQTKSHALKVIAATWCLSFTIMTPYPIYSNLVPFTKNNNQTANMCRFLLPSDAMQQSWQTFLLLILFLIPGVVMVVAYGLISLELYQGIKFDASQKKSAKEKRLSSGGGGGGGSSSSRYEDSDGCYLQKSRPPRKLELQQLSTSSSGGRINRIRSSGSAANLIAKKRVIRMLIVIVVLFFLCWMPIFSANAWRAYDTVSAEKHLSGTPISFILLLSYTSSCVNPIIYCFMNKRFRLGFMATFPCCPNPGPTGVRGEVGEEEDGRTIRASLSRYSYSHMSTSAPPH
The assay is described as follows: Binding affinity to mouse CCK1 receptor.

Structures are written as SMILES. The source made the active and inactive calls. No cut-off for these calls is given here.

Regarding `CN(C(=O)CN1C(=O)C(NC(=O)Nc2ccccc2)C(=O)N(c2ccccc2)c2ccccc21)c1ccccc1` (centres undefined), the pKb in assay [1] is 6.3. In assay [2], the result was inactive.

Consider `Cc1cccc(NC(=O)CN2C(=O)N(CC(=O)N3CCCC3)c3ccccc3N(C3CCCCCC3)C2=O)c1`, for which the inhibition constant Ki is 23.4 nM in assay [3] and 617 nM in assay [5]. Besides, the result in assay [4] was inactive.

Take `CC(C)(C)C(=O)CN1C(=O)N(CC(=O)Nc2cccc(-c3nc(=O)o[nH]3)c2)C(=O)N(C2CCCCC2)c2ccccc21`: the Ki is 1.2 nM in assay [3] and 316 nM in [5].

As for `CC(C)(C)C(=O)CN1C(=O)N(CC(=O)Nc2cccc(SCC(=O)O)c2)C(=O)N(C2CCCCCC2)c2ccccc21`, the Ki is 0.891 nM in assay [3] and 282 nM in assay [5].

For the compound `CC(C)N(C(=O)CN1C(=O)C(CC(=O)Nc2ccccc2)C(=O)N(c2ccccc2)c2ccccc21)c1ccccc1` (centres undefined), the Ki in assay [6] was 794 nM; in assay [7], 158 nM. Further, the EC50 in [8] was 398 nM. Further, the Activity in assay [2] amounted to 50%.

Consider `CNc1cccc(NC(=O)CN2C(=O)N(CC(=O)C(C)(C)C)c3ccccc3N(C3CCCCC3)C2=O)c1`, for which the Ki in assay [3] is 9.55 nM; in assay [5], 2340 nM.

For `Cc1cccc(NC(=O)CN2C(=O)N(CC(=O)C(C)(C)C)c3ccccc3N(C3CCCCCC3)C2=O)c1`, the Ki was 7.59 nM in assay [3] and 447 nM in [5].

Consider `CC(C)N(C(=O)CN1C(=O)C(NC(=O)Nc2ccccc2)C(=O)N(c2ccccc2)c2ccccc21)c1ccccc1` (centres undefined), for which the Activity in assay [2] worked out at 86%.

As to `O=C(CN1C(=O)N(CC(=O)N2CCCC2)c2ccccc2N(c2ccccc2)C1=O)Nc1cccc(C(=O)O)c1`, the Ki is 380 nM in assay [3] and over 10000 nM in assay [5].

On to `CC(C)(C)C(=O)CN1C(=O)N(CCCC(=O)Nc2cccc(-c3nc(=O)o[nH]3)c2)C(=O)N(C2CCCCC2)c2ccccc21`, for which the Ki in assay [3] is 20.9 nM; in [5], 72.4 nM.

Consider `CC(C)(C)C(=O)CN1C(=O)N(CC(=O)Nc2cccc(CCC(=O)O)c2)C(=O)N(C2CCCCC2)c2ccccc21`, for which the Ki in [3] was 6.31 nM; in assay [5], 2340 nM.

With `CC(C)(C)C(=O)CN1C(=O)N(CC(=O)Nc2cccc(CC(=O)O)c2)C(=O)N(C2CCCCCC2)c2ccccc21`, the Ki is 3.16 nM in [3] and 3890 nM in assay [5].

Consider `CC(C)(C)C(=O)CN1C(=O)N(CC(=O)Nc2cccc(-c3nc(=O)o[nH]3)c2)C(=O)N(C2CCCCCC2)c2ccccc21`, for which the inhibition constant (Ki) was 0.427 nM in [3] and 117 nM in assay [5].

As to `CC(C)(C)C(=O)CN1C(=O)N(CC(=O)Nc2cccc(C(=O)O)c2)N=C(C2CCCCC2)c2ccccc21`, the Ki was 1 nM in [6] and 10000 nM in assay [7].

With `CN(c1cccc(NC(=O)CN2C(=O)N(CC(=O)C(C)(C)C)c3ccccc3N(C3CCCCC3)C2=O)c1)c1nn[nH]n1`, the values for the Ki in assay [3] and in [5] were 4.27 nM and 2090 nM, respectively.

On to `Cc1nc(-c2cccc(NC(=O)CN3C(=O)N(CC(=O)C(C)(C)C)c4ccccc4N(C4CCCCC4)C3=O)c2)cs1`, for which the values for the Ki in assay [3] and in [5] were 9.55 nM and 1550 nM, respectively.

As to `Cc1cccc(NC(=O)NC2C(=O)N(CC(=O)N3CCCC3)c3ccccc3N(CC(=O)N3CCCC3)C2=O)c1`, the IC50 in assay [9] is 50.1 nM; in assay [10] it was 794 nM.

Turning to `CC(C)N(C(=O)CN1C(=O)C(NC(=O)Nc2cccc(C(=O)O)c2)C(=O)N(c2ccccc2)c2ccccc21)c1ccccc1` (centres undefined), the results for the Ki in assay [6] and in assay [7] were 10 nM and 126 nM, respectively. The EC50 in assay [8] was 39.8 nM. The Activity in assay [2] stood at 102%.

`O=C(CN1C(=O)N(CC(=O)N2CCCC2)c2ccccc2N(c2ccccc2)C1=O)Nc1ccccc1`: the Ki was 1000 nM in [3] and over 10000 nM in [5].

On to `CNc1cccc(NC(=O)N[C@@H]2N=C(c3ccccn3)c3ccccc3N(CC(=O)C(C)(C)C)C2=O)c1` [NETAZEPIDE], for which the Ki in assay [6] was 0.0794 nM; in [7], 31.6 nM.
